From US9907765B2, “Treatment of connective tissue diseases of the skin” (Cipher Pharmaceuticals, Inc., priority 2005, dated 2018)

What was measured:
[1] = test system: patients suffering from subacute Lupus Erythematosus; assay: Topical treatment of cutaneous manifestations in patients with subacute Lupus Erythematosus; type: in vivo, human; details: patient with Sub-acute Cutaneous Lupus Erythematosus, after 8 weeks of treatment
Source text: (§1) Examples 2 to 5 concern the treatment of cutaneous manifestation in patients suffering from discoid Lupus Erythematosus or subacute Lupus Erythematosus with the topical composition of Example 1 under the control of a medical doctor of Bispebjerg Hospital, Denmark. The composition was applied to affected areas once or twice per day.
A person had been suffering from subacute Lupus Erythematosus for 16 years. The subject was affected on large areas of the body with elements on the back, the breast and the face.
The person has previously been treated with oral prednisolone, chlorochin, thalidomide and strong topical steroids, but all with limited or no effect.
During an aggravation of the symptoms, the person initiated a twice daily treatment with the emulsion according to example 1.

[2] = test system: patients suffering from discoid Lupus Erythematosus; assay: Topical treatment of cutaneous manifestations in patients with discoid Lupus Erythematosus; type: in vivo, human; details: patient with Discoid Lupus Erythematosus, after 3 weeks treatment
Source text: as §1
A person had been suffering from discoid Lupus Erythematosus for 18 years. Their arms were somewhat affected and the fingers were severely affected with acrocyanosis. During the years, the person had regularly been treated with strong topical steroids, but with limited effect.
During an aggravation of the disease, which especially affected the fingers, the person initiated a treatment with the emulsion according to example 1 on the fingers.
A person had been suffering from discoid Lupus Erythematosus for 6 years. The symptoms started on the chin, but had spread to most of the face.
During an aggravation of the symptoms, the subject initiated a twice daily treatment with the emulsion according to example 1.
A person had been suffering from discoid Lupus Erythematosus for 32 years. The disease was very severe with a strong affection of the arms and the back and with elements spread to other parts of the body. The person had been treated with ercoquin and strong topical corticosteroids, but with limited effect. […]

[3] = test system: Albino guinea pigs of Dunkin-Hartley strain; assay: Skin sensitization test according to the Magnusson and Kligman method (O.E.C.D. Guideline No 406); type: in vivo, guinea pig
Method: Assessment of sensitising properties of R-salbutamol. Test for skin sensitization is carried out according to the Magnusson and Kligman method (J. Invest. Dermatol. 1969. 52, 268-276) and in accordance with O.E.C.D. Guideline No 406 of Jul. 17, 1992, and the test method B.6 of the 96/54 E.E.C Directive. The test item (R-salbutamol as the sulphate salt) was diluted with distilled water to prepare a concentration of 0.5% (w/v). Albino guinea pigs of Dunkin-Hartley strain were exposed to the test item after an acclimatisation period of at least five days. The Maximum Non Necrotizing Concentration (M.N.N.C.) was determined by injecting by intradermal route the following concentrations of the test item 0.25%, 0.125%, 0.0625%, 0.0312% and 0.0156% diluted in physiological saline solution. Pre-Maximum Non Irritant Concentration (pre-M.N.I.C.) was determined by application of the test item under an occlusive dressing during 24 hours, at the following concentrations: 0.5%, 0.25%, 0.125% and 0.0625% diluted in physiological saline solution. Maximum Non Irritant Concentration (M.N.I.C.) was determined by initially establishing an induction phase by intradermal injection with a physiological saline solution and by topical application of distilled water followed by a 18-day rest phase. […]

Molecule	remission of the cutaneous symptoms [1]	improvement of inflamed lesions [2]	macroscopic cutaneous reactions attributable to allergy ([3]; challenge phase, after removal of 24 h occlusive dressing, induction with test item at 0.5%)	skin sensitization following topical application ([3]; topical application to skin)
1-[[(1,1-Dimethylethyl)amino]methyl]-4-hydroxy-1,3-benzenedimethanol [Salbutamol]	complete remission	significant improvement		
CC(C)(C)NC[C@H](O)c1ccc(O)c(CO)c1 [R-salbutamol]			No macroscopic cutaneous reactions attributable to allergy	does not confer skin sensitization
